We go through one compound from ChEMBL document CHEMBL4396887, “Five-Membered N-Heterocyclic Scaffolds as Novel Amino Bioisosteres at γ-Aminobutyric Acid (GABA) Type A Receptors and GABA Transporters” (J Med Chem, 2019).

Calls of active or inactive are those of the source. No cut-off for these calls is given here.

In test [1] the target is Gamma-aminobutyric acid receptor subunit rho-1 (Homo sapiens, UniProt P24046). The experiment in a line: Agonist activity at recombinant human GABA-A rho-1 receptor transiently expressed in human tsA201 cells assessed as GABA-induced maximum response incubated for 30 mins and measured up to 90 secs by FMP dye based FLIPR membrane potential blue assay relative to GABA. The test is classed as cell-based.
Chain of Gamma-aminobutyric acid receptor subunit rho-1 (P24046 whole entry): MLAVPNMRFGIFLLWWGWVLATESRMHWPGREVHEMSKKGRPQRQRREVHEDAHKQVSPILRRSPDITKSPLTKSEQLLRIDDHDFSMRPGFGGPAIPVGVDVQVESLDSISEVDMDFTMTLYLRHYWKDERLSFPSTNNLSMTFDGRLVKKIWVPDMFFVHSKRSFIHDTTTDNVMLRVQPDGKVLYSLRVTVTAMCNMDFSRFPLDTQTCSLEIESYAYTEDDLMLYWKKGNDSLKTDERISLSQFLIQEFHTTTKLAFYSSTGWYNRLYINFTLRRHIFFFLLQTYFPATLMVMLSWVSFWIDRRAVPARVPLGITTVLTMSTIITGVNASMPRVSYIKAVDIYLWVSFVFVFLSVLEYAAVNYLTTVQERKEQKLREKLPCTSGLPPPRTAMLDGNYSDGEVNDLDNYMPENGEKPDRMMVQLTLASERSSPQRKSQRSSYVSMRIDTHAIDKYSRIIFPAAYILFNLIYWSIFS

The target in test [2] is T1, Gamma-aminobutyric acid receptor subunit alpha-4/beta-2/gamma-2 (Homo sapiens, UniProt P47870+P18507+P48169). The experiment in a line: Agonist activity at recombinant human GABA-A alpha4beta2gamma2S receptor transiently expressed in human tsA201 cells incubated for 30 mins and measured up to 90 secs by FMP dye based FLIPR membrane potential blue assay. The test is classed as cell-based.

Test [3] has as its target T2, Sodium- and chloride-dependent GABA transporter 2 (Homo sapiens) (UniProt Q9NSD5).
T2 sequence (whole entry): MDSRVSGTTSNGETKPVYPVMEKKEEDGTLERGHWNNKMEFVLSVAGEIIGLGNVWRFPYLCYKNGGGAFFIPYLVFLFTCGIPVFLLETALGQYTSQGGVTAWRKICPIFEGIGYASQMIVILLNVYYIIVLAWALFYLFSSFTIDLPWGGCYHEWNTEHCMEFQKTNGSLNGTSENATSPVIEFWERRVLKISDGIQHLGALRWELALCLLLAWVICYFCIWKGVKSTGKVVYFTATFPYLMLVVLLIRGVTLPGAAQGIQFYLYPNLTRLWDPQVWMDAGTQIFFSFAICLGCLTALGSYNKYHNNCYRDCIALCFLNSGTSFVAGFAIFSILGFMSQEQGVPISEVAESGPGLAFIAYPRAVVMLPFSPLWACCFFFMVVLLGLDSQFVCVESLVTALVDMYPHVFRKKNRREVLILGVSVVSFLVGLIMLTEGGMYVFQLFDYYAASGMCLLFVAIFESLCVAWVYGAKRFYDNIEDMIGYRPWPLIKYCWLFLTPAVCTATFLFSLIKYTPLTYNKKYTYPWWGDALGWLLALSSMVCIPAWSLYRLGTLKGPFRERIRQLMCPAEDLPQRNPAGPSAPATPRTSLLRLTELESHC
The test is described as follows: Inhibition of human GAT2 expressed in Flp-In CHO cells assessed as reduction in [3H]GABA uptake at 100 uM incubated for 3 mins by liquid scintillation counting method relative to control. The test is classed as cell-based.

The target in test [4] is T1, Gamma-aminobutyric acid receptor subunit alpha-4/beta-2/gamma-2. The experiment in a line: Agonist activity at recombinant human GABA-A alpha4beta2gamma2S receptor transiently expressed in human tsA201 cells assessed as GABA-induced maximum response incubated for 30 mins and measured up to 90 secs by FMP dye based FLIPR membrane potential blue assay relative to GABA. The test is classed as cell-based.

Test [5] is filed under the species Homo sapiens.
Test [6] addresses T1, Gamma-aminobutyric acid receptor subunit alpha-4/beta-2/gamma-2. The experiment in a line: Agonist activity at recombinant human GABA-A alpha4beta2gamma2S receptor transiently expressed in human tsA201 cells at >= 100 uM incubated for 30 mins and measured up to 90 secs by FMP dye based FLIPR membrane potential blue assay. The test is classed as cell-based.
The target in test [7] is T3, Sodium- and chloride-dependent betaine transporter (Homo sapiens) (UniProt P48065).
T3 sequence (whole entry): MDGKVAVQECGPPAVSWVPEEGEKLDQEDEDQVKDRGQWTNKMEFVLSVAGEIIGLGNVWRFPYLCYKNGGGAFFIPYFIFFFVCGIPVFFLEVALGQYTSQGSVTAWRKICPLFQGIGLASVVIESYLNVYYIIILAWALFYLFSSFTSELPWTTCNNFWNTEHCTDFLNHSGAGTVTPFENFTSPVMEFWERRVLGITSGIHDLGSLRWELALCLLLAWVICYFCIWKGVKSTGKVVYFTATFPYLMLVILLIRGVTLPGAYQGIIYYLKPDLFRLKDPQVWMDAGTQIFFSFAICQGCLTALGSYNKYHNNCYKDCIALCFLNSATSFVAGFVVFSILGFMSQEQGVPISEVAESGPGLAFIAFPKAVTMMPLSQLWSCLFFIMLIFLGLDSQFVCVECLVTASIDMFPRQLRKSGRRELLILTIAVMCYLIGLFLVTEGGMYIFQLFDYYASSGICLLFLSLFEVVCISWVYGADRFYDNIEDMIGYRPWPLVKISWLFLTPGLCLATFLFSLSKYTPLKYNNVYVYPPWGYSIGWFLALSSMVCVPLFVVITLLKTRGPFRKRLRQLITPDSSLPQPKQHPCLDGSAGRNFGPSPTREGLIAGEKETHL
The experiment in a line: Inhibition of human BGT1 expressed in Flp-In CHO cells assessed as reduction in [3H]GABA uptake at 100 uM incubated for 3 mins by liquid scintillation counting method relative to control. The test is classed as cell-based.

The species named for test [8] is Homo sapiens. The test is described as follows: Agonist activity at recombinant human GABA-A alpha3beta2gamma2S receptor transiently expressed in human tsA201 cells at >= 30 uM incubated for 30 mins and measured up to 90 secs by FMP dye based FLIPR membrane potential blue assay. The test is classed as cell-based.
Test [9] deals with Gamma-aminobutyric acid receptor subunit alpha-5/beta-2/gamma-2 (Homo sapiens) (UniProt P47870+P18507+P31644). The test is described as follows: Agonist activity at recombinant human GABA-A alpha5beta2gamma2S receptor transiently expressed in human tsA201 cells assessed as GABA-induced maximum response incubated for 30 mins and measured up to 90 secs by FMP dye based FLIPR membrane potential blue assay relative to GABA. The test is classed as cell-based.

Test [10] has as its target T4, GABA-A receptor; alpha-1/beta-2/gamma-2 (Homo sapiens) (UniProt P14867+P47870+P18507). The experiment in a line: Agonist activity at recombinant human GABA-A alpha1beta2gamma2S receptor transiently expressed in human tsA201 cells incubated for 30 mins and measured up to 90 secs by FMP dye based FLIPR membrane potential blue assay. The test is classed as cell-based.

The target of test [11] is T5, Sodium- and chloride-dependent GABA transporter 3 (Homo sapiens) (UniProt P48066).
T5 sequence (whole entry): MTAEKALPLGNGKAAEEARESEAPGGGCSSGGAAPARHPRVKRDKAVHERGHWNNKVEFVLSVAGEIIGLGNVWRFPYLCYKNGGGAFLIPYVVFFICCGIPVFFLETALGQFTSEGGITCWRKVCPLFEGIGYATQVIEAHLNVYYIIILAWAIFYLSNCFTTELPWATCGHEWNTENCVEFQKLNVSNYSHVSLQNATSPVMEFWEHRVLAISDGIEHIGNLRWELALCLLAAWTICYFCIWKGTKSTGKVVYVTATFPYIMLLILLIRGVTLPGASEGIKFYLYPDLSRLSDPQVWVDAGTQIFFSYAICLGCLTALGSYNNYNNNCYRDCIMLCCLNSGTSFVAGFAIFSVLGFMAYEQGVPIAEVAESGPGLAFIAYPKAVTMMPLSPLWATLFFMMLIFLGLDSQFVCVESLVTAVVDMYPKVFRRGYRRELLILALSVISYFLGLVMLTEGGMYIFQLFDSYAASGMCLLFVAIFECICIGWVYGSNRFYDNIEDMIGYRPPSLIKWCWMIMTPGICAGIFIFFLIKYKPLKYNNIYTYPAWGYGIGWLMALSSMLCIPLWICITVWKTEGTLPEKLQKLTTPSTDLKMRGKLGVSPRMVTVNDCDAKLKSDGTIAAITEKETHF
The experiment in a line: Inhibition of human GAT3 expressed in Flp-In CHO cells assessed as reduction in [3H]GABA uptake at 100 uM incubated for 3 mins by liquid scintillation counting method relative to control. The test is classed as cell-based.

Test [12] is filed under the species Homo sapiens. The test is described as follows: Agonist activity at recombinant human GABA-A alpha3beta2gamma2S receptor transiently expressed in human tsA201 cells assessed as GABA-induced maximum response incubated for 30 mins and measured up to 90 secs by FMP dye based FLIPR membrane potential blue assay relative to GABA. The test is classed as cell-based.

Test [13] addresses T4, GABA-A receptor; alpha-1/beta-2/gamma-2 (Homo sapiens). The experiment in a line: Agonist activity at recombinant human GABA-A alpha1beta2gamma2S receptor transiently expressed in human tsA201 cells assessed as GABA-induced maximum response incubated for 30 mins and measured up to 90 secs by FMP dye based FLIPR membrane potential blue assay relative to GABA. The test is classed as cell-based.

For test [14] the target is unchanged. The experiment in a line: Agonist activity at recombinant human GABA-A alpha1beta2gamma2S receptor transiently expressed in human tsA201 cells at >= 10 uM incubated for 30 mins and measured up to 90 secs by FMP dye based FLIPR membrane potential blue assay. The test is classed as cell-based.
The target of test [15] is Sodium- and chloride-dependent GABA transporter 1 (Homo sapiens, UniProt P30531). The experiment in a line: Inhibition of human GAT1 expressed in Flp-In CHO cells assessed as reduction in [3H]GABA uptake at 100 uM incubated for 3 mins by liquid scintillation counting method relative to control. The test is classed as cell-based.
Chain of Sodium- and chloride-dependent GABA transporter 1 (P30531 whole entry, looked up): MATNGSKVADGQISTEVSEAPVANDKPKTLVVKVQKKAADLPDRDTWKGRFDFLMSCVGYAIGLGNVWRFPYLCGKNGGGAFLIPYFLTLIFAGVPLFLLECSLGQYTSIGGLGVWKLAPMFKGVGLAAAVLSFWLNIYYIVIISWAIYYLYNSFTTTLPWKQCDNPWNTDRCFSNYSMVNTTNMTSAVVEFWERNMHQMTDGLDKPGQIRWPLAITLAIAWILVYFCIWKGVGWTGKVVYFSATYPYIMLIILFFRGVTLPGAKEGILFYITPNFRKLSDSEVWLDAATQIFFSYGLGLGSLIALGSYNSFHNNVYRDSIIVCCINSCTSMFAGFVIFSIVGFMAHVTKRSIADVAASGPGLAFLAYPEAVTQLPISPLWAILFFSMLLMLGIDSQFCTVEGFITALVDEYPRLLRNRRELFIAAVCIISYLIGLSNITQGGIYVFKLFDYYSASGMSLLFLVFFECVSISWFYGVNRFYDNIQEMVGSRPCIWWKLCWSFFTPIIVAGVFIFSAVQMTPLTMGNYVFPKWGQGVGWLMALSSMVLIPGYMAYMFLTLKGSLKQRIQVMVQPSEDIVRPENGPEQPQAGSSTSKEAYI

As to `CC(C(=O)O)C1CSC(N)=N1` (stereo in doubt; l-10b), the Rmax in test [1] amounted to 31%; in test [9], 34%. Further, the pEC50 result (in test [2]; in the test filed under Homo sapiens [5]; in [10]) was “inactive” each time. Moreover, the inhibition in [3], in test [7], in test [11] and in [15] was greater than 30% in each case. Also, the Rmax result (in [4]; in the test filed under Homo sapiens [12]; in [13]) was “inactive” throughout. Further, the outcome (in test [6]; in the test filed under Homo sapiens [8]; in test [14]) was Active.
